US20120289517A1, “SOLID PHARMACEUTICAL COMPOSITION FOR ORAL ADMINISTRATION” (Kowa Co., Ltd., priority 2009, published 2012)

Assays:
[1] = Dissolution test (paddle method, Japanese Pharmacopoeia); format: physicochemical; details: summary of Test Example 1
Experimental: Thus, the concentrations of the compound a after 5, 10, 15, 30, 45 and 60 minutes were measured. The sample solution collected at each time point was filtered through a membrane filter made of PTFE (DISMIC-25HP manufactured by Toyo Roshi Kaisha, Ltd.) having a pore size of 0.45 μm, and was analyzed by a high performance liquid chromatographic method using a reversed phase column (manufactured by Nomura Chemical Co., Ltd.; Develosil ODS-HG-5). Thus, the dissolution rates were calculated.

[2] = Solubility in water; format: physicochemical

CSc1cc(C)nc(SC)c1NC(=O)CN1CCN(CCSc2nc3ccccc3[nH]2)CC1 [compound a, 2-[4-[2-(Benzimidazol-2-ylthio)ethyl]piperazin-1-yl]-N-[2,4-bis(methylthio)-6-methyl-3-pyridyl]acetamide]
dissolubility, result in words [1]: hardly dissolved
solubility in water [2]: 0.05 % (W/V)
